# Results as given in US10105350B2, “Cosmetic preservatives as therapeutic corneoscleral tissue cross-linking agents” (THE TRUSTEES OF COLUMBIA UNIVERSITY IN THE CITY OF NEW YORK, priority 2014, dated 2018).
# Where two headings read alike, the source gives them in different places.
# Experiments:
# [1] = cross-linking (gel formation) with polyallylamine (PAA) hydrogel model system; details: with PAA at 37° C. and pH 7.4 phosphate buffered solution
# Text: Shown in Table 1 below are the results from a parallel study using a hydrogel functionalized amine cross-linking system (polyallylamine, or “PAA”) previously published for reactions using nitroalcohols (NAs). Li et al., “Mechanistic and catalytic studies of β-nitroalcohol crosslinking with polyamine,” J Appl Polym Sci. 2013; 128:3696-3701. The Table summarizes the results obtained in comparison studies using three of the higher order nitroalcohols previously reported (the nitrotriol HNPD, the nitrodiol MNPD, and the brominated nitrodiol known as Bronopol). The cross-linking efficacy of these nitroalcohol compounds were compared to two of the instantly disclosed formaldehyde releasing agents (diazolidinyl urea (DAU) and imidazolidinyl urea (IMU)). The time to gel formation indicates cross-linking efficacy in this system.
# [2] = system: porcine scleral tissue; test: scleral tissue cross-linking of cut porcine scleral pieces, shift in Tm by DSC
# Description: Equatorial scleral strips approximately 6 mm×40 mm in size were obtained from multiple eyes. These strips were submerged in DPBS solution containing 1 mM EDTA to inactivate native collagenases and to prevent tissue dehydration during sample preparation. Each strip was further cut into smaller 4 mm×3 mm pieces. The scleral pieces were individually transferred to a 24 well plate and were incubated in 1 ml of cross-linking solution in 0.1M NaHCO3 buffer at either pH 8.5 or 7.4 for 30 mins at 25° C. without refreshing the solution. […] Negative controls were treated identically with vehicle. Post-treatment, all solutions were aspirated and samples were washed twice using DPBS to remove remnant cross-linking solution before being analyzed by DSC. A minimum of three independent determinations were carried out for each condition using scleral pieces originating from different porcine globes.
# (§1) Thermal denaturation temperature (Tm) of all samples was measured using a Perkin-Elmer DSC 6000 Autosampler (Waltham, Mass.). Tissue samples were carefully blotted in a standardized, repetitive manner to remove excess solution/DPBS and transferred to pre-weighed 50 ul aluminum pans. The pans were immediately hermetically sealed using a DSC pan sealing press, which is used to prevent tissue dehydration due to evaporative losses. DSC scans were run using Pyris software (version 11.0) from 40° C. to 75° C. at a rate of 1° C./min and denaturation curves representing differential heat flow over time were recorded. DSC heat flow endotherm data was analyzed using the Pyris data analysis peak search function using a calculation limit of ±0.3° C. from the apparent thermal denaturation peak.
# Conversely, scleral samples were subjected to non-paired t-tests assuming equal variance of data. […] All ΔTm values are reported in the form of mean value followed by standard error.
# [3] = system: Salmonella; details: Ames, micronucleus and other assays as per footnotes; cited from earlier work
# [4] = system: rat; details: cited from earlier work
# [5] = from literature registry; cited from earlier work
# [6] = system: intact cadaveric rabbit cornea; test: ex vivo rabbit corneal cross-linking simulation setup, shift in thermal denaturation temperature (Tm) by DSC; details: for cross-linking efficacy compared with nitroalcohol NP (250 mM, 60 minutes): FIG. 2, half of maximum allowed concentration (DAU 9 mM, SHMG 18.5 mM, DMDM 16 mM), 30 minutes; for ΔTm (shift in denaturation temperature of corneal tissue): Second Experimental Details, 30 mins, mean ± standard error
# Description: 0.5% proparacaine was applied prior to the cross-linking solution. A cross-linking solution containing the formaldehyde releasing agent was then administered via a corneal reservoir for 30 minutes in 0.1M NaHCO3 at either pH 7.4 or 8.5. The epithelium was left intact. The control contralateral eye was treated identically with vehicle.
# Effectiveness of cross-linking was based on shifts in thermal denaturation temperature (Tm) as measured by differential scanning calorimetry (DSC) (Perkin-Elmer DSC 6000).
# Intact cadaveric rabbit heads with clear corneas were obtained fresh (within an hour of sacrifice) in adherence with the ARVO Statement For the Use of Animals in Ophthalmic and Vision Research. FAR solutions at concentrations equivalent to half the maximum allowed value (½ max) were administered in a manner designed to simulate therapeutic cross-linking in patients. For all of the corneal experiments (with the notable exception of CXL), the corneal epithelium was left intact. An 8 mm Hessburg-Barron corneal reservoir was affixed to the corneal surface using the supplied syringe vacuum. A single drop of proparacaine (0.5%) was applied to the corneal surface prior to reservoir application. A buffer solution containing 0.1M NaHCO3 at either pH 8.5 or 7.4 was used. The pH of the sample and buffer mixture was titrated to the desired pH just prior to application to the eye using an appropriately concentrated HCl solution. Treatments were conducted over a 30-minute period at 25° C. with refreshing of the solution every five minutes. The control contralateral eye was treated identically with vehicle. Immediately after treatment, a central 6 mm corneal button was trephined from the treated region of each eye, was blotted on both sides using a paper towel to remove excess solution, and was analyzed using differential scanning calorimetry (DSC) [see below]. A minimum of two independent determinations were carried out for each condition described using a fresh cadaver head each time.
# as §1
# Due to the nature of the ex vivo cadaveric system used for corneal cross-linking, where each cadaver provided the treated eye and contralateral control, corneal samples were subjected to paired t-tests. […] All ΔTm values are reported in the form of mean value followed by standard error.
# [7] = system: human skin fibroblasts (HSFs); details: past cell toxicity studies; cited from earlier work
# [8] = quantitative determination of formaldehyde release by 13C-NMR; assay type: physicochemical; details: pH 7.4 phosphate buffer, releaser 1.5 M; for Concentration of formaldehyde (M)a: free formaldehyde after 30 min at 37° C.; for Concentration of formaldehyde (M)b: free formaldehyde after 1 hour at 37° C.
# Description: In the study corresponding with Table 2, NMR samples were prepared in NMR tubes as follows: X mg of formaldehyde-releaser, 500 ul of phosphate buffer (pH 7.4), and 500 ul of a solution of acetonitrile in D2O as internal standard (0.2M). […]. For each spectrum, the area of the formaldehyde signal at 82.5 ppm was compared with that of the acetonitrile signal at 1.3 ppm (internal standard).
# • Concentration of formaldehyde-releasing agent (FAR), including nitroalcohols is 1.5 M. ^aConcentration of free formaldehyde (FA): after the sample was incubated in a water bath at 37° C. for 30 min. ^bConcentration of free formaldehyde (FA): after the sample was incubated in a water bath at 37° C. for 1 hour.
# [9] = system: mouse; details: in vivo; cited from earlier work
# [10] = system: human skin fibroblasts (HSFs); details: 24 hrs exposure, 48 hr recovery
# Description: Healthy human skin fibroblasts (HSFs) from ATCC (Manassas, Va.) were cultured in dermal cell basal media (ATCC) using a serum-free fibroblast growth kit provided by the company (ascorbic acid, EGF/TGF-β1, glutamine, hydrocortisone, insulin and FB growth supplements). Cells were grown in 5% CO2 and 95% ambient air at 37° C. until confluent. Once confluent, the cells were detached and seeded into 24 well plates at a density of 5×10^4 cells/well and were once again allowed to reach confluence. Next, cells were treated with FAR solutions over a range of concentrations (0.001 mM-5 mM) for 24 hrs. Following cross-linking exposure, all cell media, including FAR solution, was aspirated and each well was rinsed once with DPBS. Fresh media was then reintroduced and the cells were allowed to recover for 48 hrs. Subsequent to cell recovery, cell toxicity was assessed using a modified version of the trypan blue staining protocol. To that end, all culture media was aspirated and each well was rinsed with DPBS. Next, 0.4% trypan blue solution (Gibco, Grand Island, N.Y., USA) was added to each well for 3 minutes at 25° C. The staining solution was then aspirated and cells were washed twice with DPBS. Finally, extent of trypan blue staining and morphology of cells was visualized using an inverted microscope (Fisher Scientific Cat#12-560-45).
# Planar cell culture experiments using Human Skin Fibroblasts (HSFs) were conducted to determine the toxicity thresholds of the FARs. The toxicity threshold was taken to be the highest concentration in mM at which all cells were alive following a 24 hour exposure to the FAR and a 48 hour recovery period.
# [11] = system: rabbit; details: cited from earlier work
# [12] = pH 8.5, concentrations as low as half max allowed
# [13] = pH 7.4, half max allowed concentration, epithelium intact
# [14] = pH 8.5, half max allowed concentration, epithelium intact
compound,measurement,setting,value
"O=[N+]([O-])C(Br)(CO)CO [BP, 2-bromo-2-nitro-1,3-propanediol, reference compound]",Cross-linking time to gel formation,[1],42 h
same,ΔTm of scleral tissue,"[2]; 25 mM, pH 7.4, 30 mins",~0.5 °C
same,ΔTm of scleral tissue,"[2]; 25 mM, pH 8.5, 30 mins",~0.5 °C
same,Mutagenicity,[3],Non- mutagenic§
same,LD50 Oral rat,[4]; oral,180 mg/kg
"CC1(C)C(=O)N(CO)C(=O)N1CO [DMDM, 1,3-dimethylol-5,5-dimethyl-hydantoin]",ΔTm of scleral tissue,"[2]; 25 mM, pH 7.4, 30 mins",1.693±0.033 °C
same,scleral cross-linking effect (significance of ΔTm),"[2]; pH 7.4, concentrations as low as half max allowed",statistically significant cross-linking effects
same,scleral cross-linking effect (significance of ΔTm),[2]; [12],statistically significant cross-linking effects
same,Octanol Partition Coefficient (Log P),[5],−1.078 ± 0.654
same,Mutagenicity,[3],Non- mutagenic‡
same,"cross-linking efficacy compared with nitroalcohol NP (250 mM, 60 minutes)",[6],significantly more effective
same,ΔTm (shift in denaturation temperature of corneal tissue),[6]; [13],2.13±0.273 °C
same,ΔTm (shift in denaturation temperature of corneal tissue),[6]; [14],2.04±0.225 °C
O=CC(O)CO (stereo not shown) [Glyceraldehyde],toxic threshold for HSFs,[7],1 mM
"O=[N+]([O-])C(CO)(CO)CO [HNPD, 2-hydroxymethyl-2-nitro-1,3-propanediol, reference compound]",Cross-linking time to gel formation,[1],29 h
same,Concentration of formaldehyde (M)a,[8],0.041 M
same,Concentration of formaldehyde (M)b,[8],0.078 M
same,ΔTm of scleral tissue,"[2]; 25 mM, pH 7.4, 30 mins",negative ΔTm
same,ΔTm of scleral tissue,"[2]; 25 mM, pH 8.5, 30 mins",~0.5 °C
same,Octanol Partition Coefficient (Log P),[5],−0.115 ± 0.770
same,Mutagenicity,[3],Non- mutagenic∥
same,LD50 Oral rat,"[4]; in vivo, po","1,917 mg/kg"
same,LD50 Oral mouse,[9],"10,550 mg/kg"
"O=C(NCNC(=O)NC1C(=O)NC(=O)N1CO)NC1C(=O)NC(=O)N1CO (stereo not shown) [IMU, N,N′-methylenebis[N-[3-(hydroxymethyl)-2,5-dioxo-4-imidazolidinyl]]-urea]",ΔTm of scleral tissue,"[2]; 25 mM, pH 7.4, 30 mins",1.280±0.392 °C
same,ΔTm of scleral tissue,"[2]; 25 mM, pH 8.5, 30 mins",2.543±0.280 °C
same,cell state (Alive/Dead),[10]; 0.001 mM,Alive
same,cell state (Alive/Dead),[10]; 0.01 mM,Alive
same,cell state (Alive/Dead),[10]; 0.1 mM,Alive
same,cell state (Alive/Dead),[10]; 1 mM,Dead
same,cell state (Alive/Dead),[10]; 5 mM,Dead
same,Octanol Partition Coefficient (Log P),[5],−4.930 ± 0.959
same,LD50 Oral rat,[4]; oral,"LD50 Oral- rat-11,300 mg/kg"
same,ΔTm (shift in denaturation temperature of corneal tissue),[6]; [14],−0.69±0.697 °C
same,negative shift in Tm of corneal tissue,"[6]; pH 7.4, half max allowed concentration, epithelium intact, not significant",~0.5 °C
"CCC12COCN1COC2 [OCT, 5-Ethyl-3,7-dioxa-1-azabicyclo [3.3.0] octane]",ΔTm of scleral tissue,"[2]; 25 mM, pH 7.4, 30 mins",~0.5 °C
same,ΔTm of scleral tissue,"[2]; 25 mM, pH 8.5, 30 mins",~0.5 °C
same,LD50 Oral rat,[4]; oral,"> 3,600 mg/kg"
same,LD50 Dermal rabbit,[11]; dermal,"1,948 mg/kg"
same,ΔTm (shift in denaturation temperature of corneal tissue),[6]; [14],1.10±0.246 °C
"O=C([O-])CNCO.[Na+] [SMG, sodium hydroxymethylglycinate]",ΔTm of scleral tissue,"[2]; 25 mM, pH 7.4, 30 mins",1.697±0.311 °C
same,ΔTm of scleral tissue,"[2]; 25 mM, pH 8.5, 30 mins",5.463±0.419 °C
same,ΔTm of scleral tissue,"[2]; pH 7.4, 39.06 mM (max allowed), 30 mins",0.007±0.222 °C
same,ΔTm of scleral tissue,"[2]; pH 8.5, 39.06 mM (max allowed), 30 mins",9.073±0.450 °C
same,scleral cross-linking effect (significance of ΔTm),[2]; [12],statistically significant cross-linking effects
same,cell state (Alive/Dead),[10]; 0.001 mM,Alive
same,cell state (Alive/Dead),[10]; 0.01 mM,Alive
same,cell state (Alive/Dead),[10]; 0.1 mM,Alive
same,cell state (Alive/Dead),[10]; 1 mM,Dead
same,cell state (Alive/Dead),[10]; 5 mM,Dead
same,Octanol Partition Coefficient (Log P),[5],−1.197
same,Mutagenicity,[3],Non- mutagenic†
same,LD50 Oral rat,"[4]; in vivo, po","LD50 Oral- rat-2,100 mg/kg, LD50 Dermal-"
same,LD50 Dermal rabbit,"[11]; in vivo, topical or ocular","rabbit->2,000 mg/kg"
same,"cross-linking efficacy compared with nitroalcohol NP (250 mM, 60 minutes)",[6],significantly more effective
same,ΔTm (shift in denaturation temperature of corneal tissue),[6]; [13],2.281±0.697 °C
same,ΔTm (shift in denaturation temperature of corneal tissue),[6]; [14],3.573±0.578 °C
COC(=O)C1=CO[C@@H](O)[C@@H]2C(CO)=CC[C@H]12 [genipin],toxic threshold for HSFs,[7],on par with bronopol
O=CCCCC=O [glutaraldehyde],toxic threshold for HSFs,[7],on par with bronopol
"CC(CO)(CO)[N+](=O)[O-] [nitro-diol, 2-methyl-2-nitro-1,3-propanediol]",Cross-linking time to gel formation,[1],66 h
same,Concentration of formaldehyde (M)a,[8],0.011 M
same,Concentration of formaldehyde (M)b,[8],0.044 M
"CC(CO)[N+](=O)[O-] (stereo not shown) [nitro-monol, 2-nitro-1-propanol]",Concentration of formaldehyde (M)a,[8],0.018 M
same,Concentration of formaldehyde (M)b,[8],0.014 M
"N,N′-methylenebis[N-[3-(hydroxymethyl)-2,5-dioxo-4-imidazolidinyl]]-urea [IMU]",Cross-linking time to gel formation,[1],4 h
